The text below walks through data of publication PMC12006171, “Marsupial cathelicidins: characterization, antimicrobial activity and evolution in this unique mammalian lineage” (Frontiers in Immunology, 2025).

Where a SMILES comes first, the peptide text is derived from it. Bounds are passed on as bounds.

The test system of one assay is E. coli ATCC 25922. Description: Killing kinetics (time kill assay). Format: cell-based, Escherichia coli. The conditions noted are these: MHB, 35°C, sampled 1-24 hours, n = 2. On the procedure: The killing kinetics assay was conducted using mid-logarithmic phase cultures of E. coli ATCC 25922 and S. aureus ATCC 29213 in MHB. Cultures were adjusted to a 0.5 McFarland standard, diluted in MHB, and then 100µL was added to each culture tube containing 10mL pre-warmed MHB to give a final inoculum concentration of 5 x 10^5 CFU/mL. A sterility control of 100uL MHB, growth control (no cathelicidin), and vehicle control (DMSO) were also included. Furthermore, 10uL was immediately removed from the growth control tube, diluted 1/1000 in saline and 100µL plated onto MHA in duplicate to confirm inoculum density. To establish colony counts from 0 hours of cathelicidin treatment, 200µL was removed from each culture tube and serially diluted ten-fold in saline from 10^0 to […] in a total volume of 200µL. Then, 10µL of each dilution was spotted onto MHA in duplicate, which were incubated at 35°C for 24 hours.
All culture tubes were then incubated at 35°C static. At 1, 2, 4, 6, 8, 10, 12, and 24 hours post-cathelicidin treatment, 200µL was removed from each culture tube for dilution and plated on MHA as described above. […] Counts of duplicates were averaged, and the log10 CFU/mL graphed against time. This was used as input for one-way ANOVA (p < 0.05) followed by Dunnett’s post hoc test.

In assay [1] the test system is Streptococcus agalactiae Clinical isolate - animal. Nature of the assay: microbe, parasite or virus in culture. Conditions: clinical isolate - animal; read-out: MIC S. agalactiae. Format: cell-based. In short, it runs like this: (§1)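 MIC defined as lowest peptide level preventing visible growth after 20–24 h at 35°C. Candida tested in RPMI-1640 MOPS; bacteria in Mueller Hinton broth, optionally with 10% lysed horse blood and/or divalent cations. Final peptide range 64-0.125 μg/mL, starting inoculum 5 x 10^5 CFU/mL, per CLSI M07-A/M26A.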

The test system of assay [2] is Streptococcus pneumoniae ATCC 49619. Description: microbe, parasite or virus in culture. Type of assay: cell-based. The conditions noted are these: ATCC 49619; read-out: MIC S. pneumoniae ATCC. In short, it runs like this: as §1
Assay [3] relates to Streptococcus agalactiae ATCC 12386. Description: microbe, parasite or virus in culture. Type of assay: cell-based. Conditions: ATCC 12386; read-out: MIC S. agalactiae ATCC. In short, it runs like this:
as §1

The subject of assay [4] is Pseudomonas aeruginosa clinical isolate - animal. Description: microbe, parasite or virus in culture. Type of assay: cell-based. The conditions noted are these: clinical isolate - animal; read-out: MIC P. aeruginosa. Put shortly: (§2)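 MIC read visually as the lowest peptide concentration with no growth versus negative control, after 20–24 h at 35°C. Peptides were tested in duplicate 64-0.125μg/mL (final) in MHB or cation-supplemented MH II B, some with 10% lysed horse blood; inoculum 5 x 10^5 CFU/mL.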

Assay [5] has as its system Pseudomonas aeruginosa ATCC 27853. Nature of the assay: microbe, parasite or virus in culture. Format: cell-based. The conditions noted are these: ATCC 27853; read-out: MIC P. aeruginosa ATCC. Put shortly: as §2
Assay [6] has as its system Escherichia coli clinical isolate - animal. Nature of the assay: microbe, parasite or virus in culture. Format: cell-based. The conditions noted are these: clinical isolate - animal. In short, it runs like this: as §2
In assay [7] the test system is Escherichia coli ATCC 25922. Nature of the assay: microbe, parasite or virus in culture. Type of assay: cell-based. The conditions noted are these: ATCC 25922. Put shortly:
as §2

Assay [8] concerns Staphylococcus aureus clinical isolate - animal. Description: microbe, parasite or virus in culture. Type of assay: cell-based. Conditions: clinical isolate - animal; read-out: MIC S. aureus. In short, it runs like this:
as §2

The test system of assay [9] is Staphylococcus aureus ATCC 29213. Nature of the assay: microbe, parasite or virus in culture. Type of assay: cell-based. Conditions: ATCC 29213; read-out: MIC S. aureus ATCC. In short, it runs like this:
as §2

Regarding `CC[C@H](C)[C@H](NC(=O)[C@H](CC(=O)O)NC(=O)[C@H](CC(=O)O)NC(=O)CNC(=O)[C@H](CC(C)C)NC(=O)[C@H](CCCCN)NC(=O)[C@@H](NC(=O)[C@H](C)NC(=O)[C@H](CCCCN)NC(=O)[C@H](CCCNC(=N)N)NC(=O)[C@H](CCCCN)NC(=O)[C@H](CC(C)C)NC(=O)[C@H](CO)NC(=O)[C@H](CCC(=O)O)NC(=O)[C@H](Cc1c[nH]c2ccccc12)NC(=O)[C@H](CC(C)C)NC(=O)CNC(=O)[C@H](CCCNC(=N)N)NC(=O)[C@@H](N)CCCCN)[C@@H](C)O)C(=O)N[C@@H](CCCNC(=N)N)C(=O)N[C@@H](CC(N)=O)C(=O)N[C@H](C(=O)N[C@@H](CC(C)C)C(=O)N[C@@H](CCCNC(=N)N)C(=O)N[C@@H](CC(N)=O)C(=O)N[C@@H](Cc1ccccc1)C(=O)N[C@@H](CCCCN)C(=O)N[C@H](C(=O)N[C@@H](CCCCN)C(=O)N[C@H](C(=O)N1CCC[C@H]1C(=O)N[C@H](C(=O)N1CCC[C@H]1C(=O)N[C@@H](CCCNC(=N)N)C(=O)N[C@@H](CCC(N)=O)C(=O)N[C@@H](Cc1c[nH]c2ccccc12)C(=O)N1CCC[C@H]1C(=O)N[C@H](C(=O)N[C@@H](CCCNC(=N)N)C(=O)N[C@H](C(=O)O)C(C)C)[C@@H](C)CC)C(C)C)C(C)C)[C@@H](C)CC)[C@@H](C)O` [MaruCath4] (H-KRGLWESLKRKATKLGDDIRNTLRNFKIKVPVPRQWPIRV-OH; N-terminus and C-terminus assumed), the “Number of hours to cause a significant reduction in log CFU/mL of E. coli ATCC (p < 0.05)” value in the assay with E. coli ATCC 25922 (2x MIC) and with E. coli ATCC 25922 (MIC) was 4 hours each time. Further, the MIC in assay [1], in assay [2], in assay [3], in assay [4], in assay [5] and in [8] was greater than 13.2 µM in each case. Also, the MIC in assay [9] was greater than 13.2 µM. The “MBC E. coli” value in [6] is recorded as 6.6 (6.6)^6.6 µM. In assay [6], the “MIC E. coli” value is 6.6 (6.6)^6.6 µM. For the same molecule, the “MIC in the presence of cations E. coli” value in [6] is 6.6 (6.6)^6.6 µM. Besides, the “MIC E. coli ATCC” value in [7] was 1.6 (1.6)^1.6 µM. Besides, the “MIC in the presence of cations E. coli ATCC” value in assay [7] is listed as 1.6 (1.6)^1.6 µM.
